Measurements: ChEMBL document CHEMBL1154205, “Click chemistry based rapid one-pot synthesis and evaluation for protease inhibition of new tetracyclic triazole fused benzodiazepine derivatives” (Bioorg Med Chem Lett, 2009)
Activity calls are given as the source filed them. No cut-off for these calls is given here.

Columns and labels:
[1] = Inhibition of aspartic protease
[2] = Inhibition of serine protease
[3] = Inhibition of cysteine protease

SMILES	inhibition [1]	IC50 [2]	IC50 [3]
O=C1c2cc(Br)ccc2-n2nncc2[C@@H]2C[C@@H](OCc3ccccc3)CN12	inactive	206 µM	Not Active
Cc1cc(Br)cc2c1C(=O)N1CCC[C@H]1c1cnnn1-2	inactive	674 µM	Not Active
Cc1cccc2c1C(=O)N1C[C@H](OCc3ccccc3)C[C@H]1c1cnnn1-2	inactive	536 µM	Not Active
O=C1c2cc(Br)ccc2-n2nncc2[C@@H]2CCCN12	inactive	290 µM	Not Active
O=C1c2c(cccc2[N+](=O)[O-])-n2nncc2[C@@H]2CCCN12	inactive	108 µM	Not Active
O=C1c2cc(I)cc(I)c2-n2nncc2[C@@H]2C[C@@H](OCc3ccccc3)CN12	inactive	196 µM	Not Active
